From PMC9454848, “BMS-986158, a Small Molecule Inhibitor of the Bromodomain and Extraterminal Domain Proteins, in Patients with Selected Advanced Solid Tumors: Results from a Phase 1/2a Trial” (Cancers, 2022)
“Also recorded” adds a separate entry of the source. Read-outs that look alike come from different tables or passages of the source.

Tests used:
CCR2 mRNA = assay: Change from baseline in gene expression, CCR2; assay type: in vivo, human; conditions: patients; single dose up to 4.5 mg and schedule A
Description: (§1) Summary changes from baseline in the expression of BET-regulated genes were assessed in tumor tissues and blood collected at baseline and multiple on-treatment time points after BMS-986158 administration following the 3 dosing schedules. The study also assessed summary percent changes from baseline in expression of BET-regulated genes in peripheral blood and tumors (such as HEXIM1 and C-MYC). Tissue and peripheral blood samples (at baseline and on treatment) were collected for genomic, transcriptomic, and epigenetic analyses (by DNA or mRNA) to assess pharmacodynamic changes in BET-regulated genes. These samples were analyzed using whole-exome sequencing, real-time quantitative polymerase chain reaction, and RNA-sequencing methods.
(§2) All treated patients with available biomarker measurements at baseline and ≥1 time point were included in the biomarker analyses. Blood and tumor tissue samples were collected at baseline, during treatment, and at end of treatment for biomarker analysis. Markers of selected BET-regulated genes (e.g., HEXIM1) were analyzed with summary statistics for percent changes in expression from available matched pre- and on-treatment samples over time relative to baseline. Statistically significant changes in gene expression were determined using the Benjamini–Hochberg procedure to calculate an adjusted p value with an α level of 0.05.

[1] = tested on: patients with advanced solid tumors; assay: ECG ΔQTcF exposure-response at single dose; assay type: in vivo
Description: Triplicate ECG measures were used to assess changes from baseline in the QT interval adjusted for heart rate using Fridericia’s formula (ΔQTcF) following a single dose of BMS-986158 at C1D1. ΔQTcF was evaluated in the context of exposure response for BMS-986158 and its metabolite of interest.
(§3) All treated patients who received ≥1 dose of BMS-986158 were evaluated in the safety population. […] All treated patients with available and sufficient serum or plasma samples for the corresponding analytes were included in the PK analyses. […] ECG parameters were evaluated in a categorical analysis, and linear mixed-effects regression modeling was used to describe the quantitative relationship between ΔQTcF and time-matched serum concentrations of BMS-986158 or its metabolite at a single dose.

[2] = Plasma pharmacokinetics after multiple doses (cycle 2, steady state), LC-MS/MS; assay type: in vivo, human; conditions: for AUC(0-t) / half-life / Tmax / Cmax: human, plasma, oral
Description: At C1D1 in every dosing schedule cohort, a single dose was administered followed by 168 h (i.e., 7 days) of intensive PK sampling. Following cycle 1, the multiple-dose treatment schedules (described above) began in cycle 2. PK parameters were derived following single dose combined across all schedules and multiple doses at cycle 2 for each schedule. […] PK assessments were evaluated for BMS-986158 and its metabolite using plasma samples at regular intervals. Both the parent and metabolite samples were simultaneously analyzed using a validated liquid chromatography and tandem mass spectrometry assay.
as §3

HEXIM1 mRNA = assay: Change from baseline in gene expression, HEXIM1; assay type: in vivo, human; conditions: patients; by dose
Description: as §1, §2

BET-regulated genes = assay: Transcriptional changes in matched pre- and on-treatment samples; assay type: in vivo, human; conditions: of >18,000 genes measured; Benjamini–Hochberg–adjusted p < 0.05; 41 patients
Description: as §1, §2

[3] = tested on: patient-derived xenograft models; parameters: method as in PMID 34543572; conditions: mouse, low doses; 9 of 19 models; cited from earlier work

## Cc1nnn(C)c1-c1cnc2c3ccc(C(C)(C)O)cc3n([C@H](c3ccccc3)C3CCOCC3)c2c1 [BMS-986158]
CCR2 mRNA
  CCR2 mRNA expression change from baseline: transcriptional suppression; also recorded: dose-dependent expression changes
[1]; single dose of BMS-986158
  Effect on ΔQTcF: neither BMS-986158 nor its metabolite had a statistically significant effect; also recorded: not found to cause significant QTc prolongation
[1]; single dose, linear mixed-effects model
  Predicted increase in ΔQTcF at highest observed Cmax: < 5 ms
[2]; Schedule A
  CL/F at steady state, geometric mean, range across doses: 4.60 to 5.41 mL/min
[2]; Schedule B
  CL/F at steady state, geometric mean, range across doses: 3.76 to 9.72 mL/min
[2]; Schedule C
  CL/F at steady state, geometric mean, range across doses: 3.89 to 6.65 mL/min
[2]; 0.75 mg, multiple dose, steady state, Schedule A (5 days on, 2 days off), 0.75 mg, n = 3, read-out: AUC(0–24), GM (%CV)
  AUC(0-t): 2720 ng·h/mL
[2]; 0.75 mg, multiple dose, steady state, Schedule A (5 days on, 2 days off), 0.75 mg, n = 3, read-out: Effective T1/2, mean (SD) (converted)
  half-life: 2160 min
[2]; 0.75 mg, multiple dose, steady state, Schedule A (5 days on, 2 days off), 0.75 mg, n = 4, read-out: AUC(0–T), GM (%CV)
  AUC(0-t): 3450 ng·h/mL
[2]; 0.75 mg, multiple dose, steady state, Schedule A (5 days on, 2 days off), 0.75 mg, n = 4, read-out: Tmax, median (range)
  Tmax: 3.14 h
[2]; 0.75 mg, multiple dose, steady state, Schedule A (5 days on, 2 days off), n = 4
  Cmax: 136 ng/mL
[2]; 1.25 mg, multiple dose, steady state, Schedule A (5 days on, 2 days off), 1.25 mg, n = 1, read-out: AUC(0–24), GM (%CV)
  AUC(0-t): 3850 ng·h/mL
[2]; 1.25 mg, multiple dose, steady state, Schedule A (5 days on, 2 days off), 1.25 mg, n = 4, read-out: AUC(0–T), GM (%CV)
  AUC(0-t): 4960 ng·h/mL
[2]; 1.25 mg, multiple dose, steady state, Schedule A (5 days on, 2 days off), 1.25 mg, n = 4, read-out: Tmax, median (range)
  Tmax: 1.5 h
[2]; 1.25 mg, multiple dose, steady state, Schedule A (5 days on, 2 days off), n = 4
  Cmax: 284 ng/mL
[2]; 2 mg, multiple dose, steady state, Schedule A (5 days on, 2 days off), 2.0 mg, n = 7, read-out: AUC(0–T), GM (%CV)
  AUC(0-t): 7610 ng·h/mL
[2]; 2 mg, multiple dose, steady state, Schedule A (5 days on, 2 days off), 2.0 mg, n = 7, read-out: Tmax, median (range)
  Tmax: 2 h
[2]; 2 mg, multiple dose, steady state, Schedule A (5 days on, 2 days off), n = 7
  Cmax: 442 ng/mL
[2]; 2 mg, multiple dose, steady state, Schedule B (14 days on, 7 days off), 2.0 mg, n = 1, read-out: AUC(0–24), GM (%CV)
  AUC(0-t): 3430 ng·h/mL
[2]; 2 mg, multiple dose, steady state, Schedule B (14 days on, 7 days off), 2.0 mg, n = 1, read-out: AUC(0–T), GM (%CV)
  AUC(0-t): 6320 ng·h/mL
[2]; 2 mg, multiple dose, steady state, Schedule B (14 days on, 7 days off), 2.0 mg, n = 1, read-out: Effective T1/2, mean (SD) (converted)
  half-life: 864 min
[2]; 2 mg, multiple dose, steady state, Schedule B (14 days on, 7 days off), 2.0 mg, n = 1, read-out: Tmax, median (range)
  Tmax: 1 h
[2]; 2 mg, multiple dose, steady state, Schedule B (14 days on, 7 days off), n = 1
  Cmax: 279 ng/mL
[2]; 2 mg, multiple dose, steady state, Schedule C (7 days on, 14 days off), 2.0 mg, n = 5, read-out: AUC(0–24), GM (%CV)
  AUC(0-t): 8560 ng·h/mL
[2]; 2 mg, multiple dose, steady state, Schedule C (7 days on, 14 days off), 2.0 mg, n = 5, read-out: AUC(0–T), GM (%CV)
  AUC(0-t): 19900 ng·h/mL
[2]; 2 mg, multiple dose, steady state, Schedule C (7 days on, 14 days off), 2.0 mg, n = 5, read-out: Effective T1/2, mean (SD) (converted)
  half-life: 1900 min
[2]; 2 mg, multiple dose, steady state, Schedule C (7 days on, 14 days off), 2.0 mg, n = 5, read-out: Tmax, median (range)
  Tmax: 1 h
[2]; 2 mg, multiple dose, steady state, Schedule C (7 days on, 14 days off), n = 5
  Cmax: 520 ng/mL
[2]; 3 mg, multiple dose, steady state, Schedule A (5 days on, 2 days off), 3.0 mg, n = 7, read-out: AUC(0–24), GM (%CV)
  AUC(0-t): 9820 ng·h/mL
[2]; 3 mg, multiple dose, steady state, Schedule A (5 days on, 2 days off), 3.0 mg, n = 7, read-out: Effective T1/2, mean (SD) (converted)
  half-life: 1540 min
[2]; 3 mg, multiple dose, steady state, Schedule A (5 days on, 2 days off), 3.0 mg, n = 8, read-out: AUC(0–T), GM (%CV)
  AUC(0-t): 13400 ng·h/mL
[2]; 3 mg, multiple dose, steady state, Schedule A (5 days on, 2 days off), 3.0 mg, n = 8, read-out: Tmax, median (range)
  Tmax: 2.01 h
[2]; 3 mg, multiple dose, steady state, Schedule A (5 days on, 2 days off), n = 8
  Cmax: 624 ng/mL
[2]; 3 mg, multiple dose, steady state, Schedule B (14 days on, 7 days off), 3.0 mg, n = 1, read-out: AUC(0–24), GM (%CV)
  AUC(0-t): 13300 ng·h/mL
[2]; 3 mg, multiple dose, steady state, Schedule B (14 days on, 7 days off), 3.0 mg, n = 1, read-out: AUC(0–T), GM (%CV)
  AUC(0-t): 34000 ng·h/mL
[2]; 3 mg, multiple dose, steady state, Schedule B (14 days on, 7 days off), 3.0 mg, n = 1, read-out: Effective T1/2, mean (SD) (converted)
  half-life: 2240 min
[2]; 3 mg, multiple dose, steady state, Schedule B (14 days on, 7 days off), 3.0 mg, n = 1, read-out: Tmax, median (range)
  Tmax: 1 h
[2]; 3 mg, multiple dose, steady state, Schedule B (14 days on, 7 days off), n = 1
  Cmax: 855 ng/mL
[2]; 3 mg, multiple dose, steady state, Schedule C (7 days on, 14 days off), 3.0 mg, n = 7, read-out: Effective T1/2, mean (SD) (converted)
  half-life: 1640 min
[2]; 3 mg, multiple dose, steady state, Schedule C (7 days on, 14 days off), 3.0 mg, n = 8, read-out: AUC(0–24), GM (%CV)
  AUC(0-t): 8640 ng·h/mL
[2]; 3 mg, multiple dose, steady state, Schedule C (7 days on, 14 days off), 3.0 mg, n = 8, read-out: AUC(0–T), GM (%CV)
  AUC(0-t): 18300 ng·h/mL
[2]; 3 mg, multiple dose, steady state, Schedule C (7 days on, 14 days off), 3.0 mg, n = 8, read-out: Tmax, median (range)
  Tmax: 1.66 h
[2]; 3 mg, multiple dose, steady state, Schedule C (7 days on, 14 days off), n = 8
  Cmax: 588 ng/mL
[2]; 4.5 mg, multiple dose, steady state, Schedule A (5 days on, 2 days off), 4.5 mg, n = 8, read-out: AUC(0–24), GM (%CV)
  AUC(0-t): 14600 ng·h/mL
[2]; 4.5 mg, multiple dose, steady state, Schedule A (5 days on, 2 days off), 4.5 mg, n = 8, read-out: AUC(0–T), GM (%CV)
  AUC(0-t): 29500 ng·h/mL
[2]; 4.5 mg, multiple dose, steady state, Schedule A (5 days on, 2 days off), 4.5 mg, n = 8, read-out: Effective T1/2, mean (SD) (converted)
  half-life: 1640 min
[2]; 4.5 mg, multiple dose, steady state, Schedule A (5 days on, 2 days off), 4.5 mg, n = 8, read-out: Tmax, median (range)
  Tmax: 2 h
[2]; 4.5 mg, multiple dose, steady state, Schedule A (5 days on, 2 days off), n = 8
  Cmax: 898 ng/mL
[2]; 4.5 mg, multiple dose, steady state, Schedule C (7 days on, 14 days off), 4.5 mg, n = 5, read-out: Effective T1/2, mean (SD) (converted)
  half-life: 1660 min
[2]; 4.5 mg, multiple dose, steady state, Schedule C (7 days on, 14 days off), 4.5 mg, n = 7, read-out: AUC(0–24), GM (%CV)
  AUC(0-t): 11300 ng·h/mL
[2]; 4.5 mg, multiple dose, steady state, Schedule C (7 days on, 14 days off), 4.5 mg, n = 7, read-out: AUC(0–T), GM (%CV)
  AUC(0-t): 20000 ng·h/mL
[2]; 4.5 mg, multiple dose, steady state, Schedule C (7 days on, 14 days off), 4.5 mg, n = 7, read-out: Tmax, median (range)
  Tmax: 2 h
[2]; 4.5 mg, multiple dose, steady state, Schedule C (7 days on, 14 days off), n = 7
  Cmax: 901 ng/mL
[2]; multiple dose, Schedule A, read-out: Mean effective T1/2, range
  half-life: 1540 to 2160 min
[2]; multiple dose, Schedule B, read-out: Mean effective T1/2, range
  half-life: 864 to 2240 min
[2]; multiple dose, Schedule C, read-out: Mean effective T1/2, range
  half-life: 1640 to 1900 min
[2]; multiple doses, Schedule A, 0.75–4.5-mg doses, read-out: Geometric mean AUC(0–T), range
  AUC(0-t): 3450 to 29500 ng·h/mL
[2]; multiple doses, Schedule A, read-out: AUC(0–24), range
  AUC(0-t): 2720 to 14600 ng·h/mL
[2]; multiple doses, Schedule B, 2.0–3.0-mg dose groups, read-out: Geometric mean AUC(0–T), range
  AUC(0-t): 6320 to 34000 ng·h/mL
[2]; multiple doses, Schedule B, read-out: AUC(0–24), range
  AUC(0-t): 3430 to 13300 ng·h/mL
[2]; multiple doses, Schedule C, 2.0–4.5 mg, read-out: Geometric mean AUC(0–T), range
  AUC(0-t): 18300 to 20000 ng·h/mL
[2]; multiple doses, Schedule C, read-out: AUC(0–24), range
  AUC(0-t): 8560 to 11300 ng·h/mL
[2]; multiple-dose administration, read-out: Tmax, range across all doses and schedules
  Tmax: 1 to 3.14 h
[2]; multiple-dose administration, Schedule A
  Dose proportionality of PK profile: approximately dose proportional; also recorded: dose-proportional PK profile
[2]; multiple-dose administration, Schedule C
  Dose proportionality of PK profile: less than dose proportional
HEXIM1 mRNA
  HEXIM1 mRNA expression change from baseline: dose dependently upregulated; also recorded: transcriptional activation
BET-regulated genes
  Genes with significant changes in expression: 4500
[3]
  Patient-derived xenograft models with antitumor activity: 47%
